Drawing on ChEMBL document CHEMBL1135492, “An investigation of bone resorption and Dictyostelium discoideum growth inhibition by bisphosphonate drugs” (J Med Chem, 2002), this text covers IC50 and LED for 38 molecules.

For one assay, the system named is Dictyostelium discoideum. Nature of the assay: Ability to inhibit growth of Dictostelium discoideum. The assay is classed as functional, organism-based.
For another assay, the species on record is Rattus norvegicus. As to the kind of experiment: Bone resorption activity in rats. The assay is classed as functional.

For orientation: IC50 means the concentration at which inhibition is half-maximal. Low readings indicate greater potency, high ones weaker potency.

The structures appear in SMILES notation.

Molecule `NCCCC(P(=O)(O)O)P(=O)(O)O` gave an IC50 in the assay on Dictyostelium discoideum of 44 µM.
Take `Cc1cccnc1NC(P(C)(=O)O)P(=O)(O)O` (stereo unspecified): the LED in the assay filed under Rattus norvegicus was determined as 1 mgP kg-1.
In the assay on Dictyostelium discoideum, `O=P(O)(O)C(Nc1ccccn1)P(=O)(O)O` had an IC50 of 12 µM. Besides, the LED in the assay filed under Rattus norvegicus came out at 0.01 mgP kg-1.
The matching figures for `O=P(O)(O)C(O)(CCc1cccnc1)P(=O)(O)O`: 310 µM and 1 mgP kg-1.
The matching figures for `O=P(O)(O)C(CNc1ccccn1)P(=O)(O)O`: 15 µM and 0.01 mgP kg-1.
Regarding `CCN(c1ccncc1)C(P(=O)(O)O)P(=O)(O)O`, the LED in the assay listed under Rattus norvegicus turned out to be 0.1 mgP kg-1.
Take `O=P(O)(O)C1(P(=O)(O)O)Cc2cccnc2C1`: in the assay with Dictyostelium discoideum, the IC50 is 1200 µM.
`C[n+]1cccc2c1CC(P(=O)(O)O)(P(=O)(O)O)C2`: the LED in the assay filed under Rattus norvegicus was 0.1 mgP kg-1.
In the assay with Dictyostelium discoideum, `O=P(O)(O)C(O)(C1CCc2ccncc21)P(=O)(O)O` (stereo unspecified) registered an IC50 of 36 µM. Further, the LED in the assay listed under Rattus norvegicus is 0.01 mgP kg-1.
On to `Cc1ccc(NC(P(C)(=O)O)P(=O)(O)O)nc1` (stereo unspecified), for which the LED in the assay listed under Rattus norvegicus is on record as 1 mgP kg-1.
In the assay with Dictyostelium discoideum, `O=P(O)(O)C(CCc1ccccn1)P(=O)(O)O` had an IC50 of 150 µM.
In turn, `O=P(O)(O)C1(P(=O)(O)O)CC2CCCNC2C1` (stereo unspecified) registered an IC50 in the assay with Dictyostelium discoideum of 13 µM. The molecule also returned an LED in the assay listed under Rattus norvegicus of 0.01 mgP kg-1.
Take `C[n+]1ccc(CC(O)(P(=O)(O)O)P(=O)(O)O)cc1`: the LED in the assay listed under Rattus norvegicus came out at 0.01 mgP kg-1.
For `O=P(O)(O)C(O)(Cc1ccccn1)P(=O)(O)O`, in the assay listed under Rattus norvegicus, the LED was determined as 0.001 mgP kg-1.
`O=P(O)(O)C(Nc1ccc(Cl)cn1)P(=O)(O)O`: the LED in the assay filed under Rattus norvegicus is recorded as 0.01 mgP kg-1.
As for `Cc1cccnc1NC(P(=O)(O)O)P(=O)(O)O`, in the assay on Dictyostelium discoideum, the IC50 amounted to 9 µM. In the assay filed under Rattus norvegicus, this molecule came in with an LED of 0.001 mgP kg-1.
On to `Cc1ccnc(NC(P(=O)(O)O)P(=O)(O)O)c1`, for which, in the assay filed under Rattus norvegicus, the LED was found to be 0.001 mgP kg-1.
As for `O=P(O)(O)C(O)(Cc1ccncc1)P(=O)(O)O`, the LED in the assay listed under Rattus norvegicus is on record as 0.01 mgP kg-1.
The same measure, in the same setting: with `Cc1cccc(NC(P(=O)(O)O)P(=O)(O)O)n1` the figure was 0.001 mgP kg-1.
Take `O=P(O)(O)C(Cc1cccnc1)P(=O)(O)O`: in the assay listed under Rattus norvegicus, the LED is given as 0.01 mgP kg-1.
`Cc1cccnc1NCC(P(=O)(O)O)P(=O)(O)O`: the IC50 in the assay on Dictyostelium discoideum turned out to be 40 µM. Besides, the LED in the assay listed under Rattus norvegicus is given as 1 mgP kg-1.
`CCCCP(=O)(O)C(Nc1ncccc1C)P(=O)(O)O` (stereo unspecified) displayed an LED in the assay listed under Rattus norvegicus of 1 mgP kg-1.
As to `O=P(O)(O)C(C1CCc2cccnc21)P(=O)(O)O` (stereo unspecified), in the assay on Dictyostelium discoideum, the 50% inhibitory concentration (IC50) stood at 38 µM. This molecule displayed an LED in the assay listed under Rattus norvegicus of 0.1 mgP kg-1.
For the molecule `O=P(O)(O)C(Nc1ncccn1)P(=O)(O)O`, the LED in the assay filed under Rattus norvegicus stood at 0.001 mgP kg-1.
Same read-out and setting: with `CCCCCCC[n+]1ccc(CC(O)(P(=O)(O)O)P(=O)(O)O)cc1` the figure was 0.01 mgP kg-1; with `O=P(O)(O)C(O)(CCc1ccncc1)P(=O)(O)O`, 1 mgP kg-1.
On the same count and under the same terms, the same measure for `Cc1ccc(NC(P(=O)(O)O)P(=O)(O)O)nc1`: 0.001 mgP kg-1.
The same measure, in the same setting: with `C[n+]1cccc(CC(O)(P(=O)(O)O)P(=O)(O)O)c1` the figure was 0.0001 mgP kg-1; with `C[n+]1ccccc1CC(O)(P(=O)(O)O)P(=O)(O)O`, 0.01 mgP kg-1.
`NCCCC(O)(P(=O)(O)O)P(=O)(O)O` [ALENDRONIC ACID] returned an IC50 in the assay on Dictyostelium discoideum of 32 µM. In addition, the LED in the assay filed under Rattus norvegicus is recorded as 0.001 mgP kg-1.
The matching figures for `CC(O)(P(=O)(O)O)P(=O)(O)O` [ETIDRONIC ACID]: 380 µM and 1 mgP kg-1.
The molecule `CCCCCN(C)CCC(O)(P(=O)(O)O)P(=O)(O)O` [IBANDRONIC ACID] came in with an LED in the assay filed under Rattus norvegicus of 0.0001 mgP kg-1.
In the assay filed under Rattus norvegicus, `O=P(O)(O)C(NC1CCCCCC1)P(=O)(O)O` [INCADRONIC ACID] had an LED of 0.001 mgP kg-1.
Turning to `O=P(O)(O)C(O)(Cc1cnc2ccccn12)P(=O)(O)O` [MINODRONIC ACID], the LED in the assay listed under Rattus norvegicus was found to be 0.0001 mgP kg-1.
As to `NCCC(O)(P(=O)(O)O)P(=O)(O)O` [PAMIDRONIC ACID], the half-maximal inhibitory concentration (IC50) in the assay with Dictyostelium discoideum was 167 µM. Moreover, in the assay filed under Rattus norvegicus, the LED was determined as 0.03 mgP kg-1.
The matching figures for `O=P(O)(O)C(Cc1ccccn1)P(=O)(O)O` [PIRIDRONIC ACID]: 20 µM and 0.01 mgP kg-1.
The matching figures for `O=P(O)(O)C(O)(Cc1cccnc1)P(=O)(O)O` [RISEDRONIC ACID]: 13 µM and 0.0003 mgP kg-1.
Consider `O.O=P(O)(O)C(O)(Cn1ccnc1)P(=O)(O)O` [ZOLEDRONIC ACID], for which the LED in the assay listed under Rattus norvegicus is recorded as 0.0001 mgP kg-1.
